{"source": "patent US7825132B2", "about": "“Inhibition of FGFR3 and treatment of multiple myeloma” (Novartis Vaccines and Diagnostics, Inc., priority 2002, dated 2010)", "key": {"[1]": {"tested_on": "VEGFR1, VEGFR2, PDGFRβ, and FGFR1", "settings": "KM12L4a tumors after treatment"}, "TF-1 cells": {"tested_on": "TF-1 cells", "assay": "cells", "settings": "Homo sapiens, TF-1, 72 h"}, "ERK (MAPK)": {"tested_on": "ERK (MAPK)", "assay": "ERK (MAPK) phosphorylation in HCT116 tumors", "type": "in vivo", "settings": "dose- and time-dependent"}, "[2]": {"tested_on": "FGF-2 supplemented Matrigel neovascularization"}, "[3]": {"tested_on": "PC3 human prostate tumor xenografts"}, "c-Kit": {"molecular_target": "T1, c-Kit (Homo sapiens, UniProt P10721)", "T1 construct": "Recombinant proteins corresponding to the cytoplasmic domains of the c-Kit and FLT-3 receptors were purchased (Proquinase); purchased Proquinase", "T1 sequence (P10721 546-976 limits assumed)": "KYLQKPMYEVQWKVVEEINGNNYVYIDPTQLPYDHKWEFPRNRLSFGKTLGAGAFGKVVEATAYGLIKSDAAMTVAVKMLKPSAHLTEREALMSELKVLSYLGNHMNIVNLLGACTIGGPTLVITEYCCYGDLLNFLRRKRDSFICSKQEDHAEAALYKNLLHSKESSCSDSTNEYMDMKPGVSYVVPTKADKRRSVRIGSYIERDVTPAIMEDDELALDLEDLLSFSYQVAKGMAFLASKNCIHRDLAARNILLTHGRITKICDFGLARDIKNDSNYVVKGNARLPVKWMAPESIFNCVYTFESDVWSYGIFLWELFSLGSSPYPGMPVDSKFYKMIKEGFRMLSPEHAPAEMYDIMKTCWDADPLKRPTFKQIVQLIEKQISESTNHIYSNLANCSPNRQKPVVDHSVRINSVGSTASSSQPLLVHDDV", "assay": "In vitro RTK kinase assay (TRF or radioactive)", "type": "biochemical", "settings": "Table 13"}, "[4]": {"assay": "Compound 1 and metabolite levels in rat plasma, 2 week toxicology study", "type": "in vivo"}, "[5]": {"tested_on": "cancer and primary cell lines", "assay": "antiproliferative activity, MTS assay, 27 cancer and primary cell lines (Table 6)", "type": "cell-based", "settings": "Homo sapiens, 26 out of the 27 cell lines, 72 hours", "description": ". […] The EC50 values were calculated using nonlinear regression. […]"}, "[6]": {"assay": "Monkey multiple oral dose experiment, plasma levels", "type": "in vivo", "settings": "compound 1 5 mg/kg BID oral, day 1 and 14 samples"}, "CYP2C9": {"molecular_target": "CYP2C9 (Homo sapiens, UniProt P11712)", "sequence (P11712 whole entry)": "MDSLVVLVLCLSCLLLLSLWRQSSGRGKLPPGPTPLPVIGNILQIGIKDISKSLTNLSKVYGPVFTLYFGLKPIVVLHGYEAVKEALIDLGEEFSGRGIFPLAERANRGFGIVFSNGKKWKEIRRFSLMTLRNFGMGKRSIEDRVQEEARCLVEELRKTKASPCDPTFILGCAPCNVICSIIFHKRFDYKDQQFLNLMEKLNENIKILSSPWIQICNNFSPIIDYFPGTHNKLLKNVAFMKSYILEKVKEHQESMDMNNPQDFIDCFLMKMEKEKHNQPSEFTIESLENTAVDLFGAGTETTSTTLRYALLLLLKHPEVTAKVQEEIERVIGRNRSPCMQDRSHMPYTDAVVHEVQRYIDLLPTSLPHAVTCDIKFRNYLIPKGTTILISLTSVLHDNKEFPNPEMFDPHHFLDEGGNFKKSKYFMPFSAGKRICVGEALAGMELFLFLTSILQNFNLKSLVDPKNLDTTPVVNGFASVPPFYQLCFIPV", "assay": "Inhibition of cDNA derived CYP isozymes", "type": "in vitro ADME", "settings": "cDNA-derived (recombinant) CYP2C9", "excerpt": "(§1) The compound was stable in human liver microsomes. […]."}, "CYP1A2": {"molecular_target": "T2, CYP1A2 (Homo sapiens, UniProt P05177)", "T2 sequence (P05177 1-516)": "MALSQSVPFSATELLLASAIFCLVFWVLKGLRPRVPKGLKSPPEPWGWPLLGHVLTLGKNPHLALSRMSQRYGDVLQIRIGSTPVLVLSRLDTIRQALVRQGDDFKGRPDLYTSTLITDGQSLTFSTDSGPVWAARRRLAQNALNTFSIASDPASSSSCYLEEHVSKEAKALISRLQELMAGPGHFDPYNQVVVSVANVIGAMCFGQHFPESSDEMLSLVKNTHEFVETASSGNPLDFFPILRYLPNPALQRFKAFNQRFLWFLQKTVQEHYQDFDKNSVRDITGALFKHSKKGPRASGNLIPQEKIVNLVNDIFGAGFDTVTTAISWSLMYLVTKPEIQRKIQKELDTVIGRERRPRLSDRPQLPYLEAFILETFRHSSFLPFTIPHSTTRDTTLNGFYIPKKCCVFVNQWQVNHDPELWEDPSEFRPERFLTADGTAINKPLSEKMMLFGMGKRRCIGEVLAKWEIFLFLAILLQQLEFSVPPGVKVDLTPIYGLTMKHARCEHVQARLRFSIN", "assay": "Inhibition of cDNA derived CYP isozymes", "type": "in vitro ADME", "settings": "cDNA-derived (recombinant) CYP1A2", "excerpt": "as §1"}, "CYP3A4": {"molecular_target": "CYP3A4 (Homo sapiens, UniProt P08684)", "sequence (P08684 whole entry)": "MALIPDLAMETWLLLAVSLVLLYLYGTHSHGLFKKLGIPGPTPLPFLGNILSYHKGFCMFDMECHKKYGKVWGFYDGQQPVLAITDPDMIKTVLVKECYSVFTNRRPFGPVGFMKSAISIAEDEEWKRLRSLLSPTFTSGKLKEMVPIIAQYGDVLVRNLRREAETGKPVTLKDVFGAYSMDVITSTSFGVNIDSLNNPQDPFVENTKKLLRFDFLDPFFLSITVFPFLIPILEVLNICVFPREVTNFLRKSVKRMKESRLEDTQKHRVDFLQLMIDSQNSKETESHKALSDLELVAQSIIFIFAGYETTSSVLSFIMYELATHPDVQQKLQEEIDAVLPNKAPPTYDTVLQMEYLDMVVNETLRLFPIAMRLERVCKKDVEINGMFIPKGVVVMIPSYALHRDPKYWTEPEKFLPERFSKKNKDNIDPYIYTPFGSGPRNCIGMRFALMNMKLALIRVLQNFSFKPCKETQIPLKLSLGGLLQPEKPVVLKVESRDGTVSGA", "assay": "Inhibition of cDNA derived CYP isozymes", "type": "in vitro ADME", "settings": "cDNA-derived (recombinant) CYP3A4", "excerpt": "as §1"}, "CYP2C19": {"molecular_target": "CYP2C19 (Homo sapiens, UniProt P33261)", "sequence (P33261 whole entry)": "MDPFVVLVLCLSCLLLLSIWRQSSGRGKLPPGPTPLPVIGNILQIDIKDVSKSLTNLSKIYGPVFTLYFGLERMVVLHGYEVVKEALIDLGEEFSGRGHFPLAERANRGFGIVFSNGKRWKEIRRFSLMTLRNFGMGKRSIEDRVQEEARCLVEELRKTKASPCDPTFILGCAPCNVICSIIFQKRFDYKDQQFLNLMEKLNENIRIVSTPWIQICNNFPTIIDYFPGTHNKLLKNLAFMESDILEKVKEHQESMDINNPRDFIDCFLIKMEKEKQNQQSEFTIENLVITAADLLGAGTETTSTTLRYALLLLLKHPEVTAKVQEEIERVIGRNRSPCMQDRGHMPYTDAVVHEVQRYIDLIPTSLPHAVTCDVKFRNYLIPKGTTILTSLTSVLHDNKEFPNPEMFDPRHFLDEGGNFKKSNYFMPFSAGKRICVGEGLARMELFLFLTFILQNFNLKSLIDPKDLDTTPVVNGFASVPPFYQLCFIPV", "assay": "Inhibition of cDNA derived CYP isozymes", "type": "in vitro ADME", "settings": "cDNA-derived (recombinant) CYP2C19"}, "CYP2D6": {"molecular_target": "CYP2D6 (Homo sapiens, UniProt P10635)", "sequence (P10635 whole entry)": "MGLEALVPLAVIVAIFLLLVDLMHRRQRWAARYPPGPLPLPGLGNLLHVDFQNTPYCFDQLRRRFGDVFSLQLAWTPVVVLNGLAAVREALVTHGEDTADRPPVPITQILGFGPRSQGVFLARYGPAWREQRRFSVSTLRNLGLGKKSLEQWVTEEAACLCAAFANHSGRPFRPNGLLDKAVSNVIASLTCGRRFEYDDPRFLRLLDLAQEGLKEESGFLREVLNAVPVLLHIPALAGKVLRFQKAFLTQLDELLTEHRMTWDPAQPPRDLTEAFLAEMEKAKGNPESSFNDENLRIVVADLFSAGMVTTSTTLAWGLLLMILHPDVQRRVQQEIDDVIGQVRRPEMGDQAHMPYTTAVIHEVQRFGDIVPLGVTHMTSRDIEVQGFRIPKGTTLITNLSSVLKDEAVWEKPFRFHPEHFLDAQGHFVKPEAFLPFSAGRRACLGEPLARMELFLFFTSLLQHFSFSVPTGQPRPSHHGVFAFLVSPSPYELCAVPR", "assay": "Inhibition of cDNA derived CYP isozymes", "type": "in vitro ADME", "settings": "cDNA-derived (recombinant) CYP2D6"}, "OPM-2 cells": {"tested_on": "OPM-2 cells", "settings": "Grand et al., Leukemia 2004; cited from earlier work"}}, "note": "pEC50, pIC50: −log10 of the molar value. Read-outs that look alike come from different tables or passages of the source."}
{"smiles": "CN1CCN(c2ccc3nc(-c4c(N)c5c(F)cccc5[nH]c4=O)[nH]c3c2)CC1", "note": "[Compound 1]", "values": [{"measurement": "phosphorylation of VEGFR1, VEGFR2, PDGFRβ, and FGFR1", "setting": "[1]", "value": "inhibited in a time- and dose-dependent manner"}, {"measurement": "pEC50", "setting": "TF-1 cells", "value": "≥ 7.30"}, {"measurement": "phosphorylation of ERK (MAPK)", "setting": "ERK (MAPK)", "value": "inhibited"}, {"measurement": "% Hb inhibition vs. Vehicle treatment of Matrigel + FGF", "setting": "[2]; 30 mg/kg", "value": 71, "unit": "%"}, {"measurement": "% Hb inhibition vs. Vehicle treatment of Matrigel + FGF", "setting": "[2]; 200 mg/kg", "value": 89, "unit": "%"}, {"measurement": "% Hb inhibition vs. Vehicle treatment of Matrigel + FGF", "setting": "[2]; 300 mg/kg", "value": 91, "unit": "%"}, {"measurement": "inhibition vs. FGF-supplemented controls", "setting": "[2]; range over 30, 100, 200 and 300 mg/kg", "value": "70-92%"}, {"measurement": "% TGI vs. vehicle", "setting": "[3]; 100 mpk q 2 days", "value": 75, "unit": "%"}, {"measurement": "% TGI vs. vehicle", "setting": "[3]; 100 mpk q 3 days", "value": 68, "unit": "%"}, {"measurement": "% TGI vs. vehicle", "setting": "[3]; 100 mpk q 4 days", "value": 66, "unit": "%"}, {"measurement": "% TGI vs. vehicle", "setting": "[3]; 100 mpk qd, days 1-11", "value": 60, "unit": "%"}]}
{"smiles": "Nc1c(-c2nc3ccc(N4CCNCC4)cc3[nH]2)c(=O)[nH]c2cccc(F)c12", "note": "[Compound 3, 4-Amino-5-fluoro-3-(5-piperazin-1-yl-1H-benzimidazol-2-yl)quinolin-2(1H)-one]", "values": [{"measurement": "IC50", "setting": "c-Kit", "value": 0.0002, "unit": "µM"}, {"measurement": "Des-CH3 (ng/ml), estimated from UV", "setting": "[4]; compound 1 30 mg/kg PO, Day 14, 1-2 hr", "value": 6, "unit": "ng/mL"}, {"measurement": "Des-CH3 (ng/ml), estimated from UV", "setting": "[4]; compound 1 30 mg/kg PO, Day 14, 4-8 hr", "value": 12, "unit": "ng/mL"}, {"measurement": "Des-CH3 (ng/ml), estimated from UV", "setting": "[4]; compound 1 100 mg/kg PO, Day 1, 1-2 hr", "value": 35, "unit": "ng/mL"}, {"measurement": "Des-CH3 (ng/ml), estimated from UV", "setting": "[4]; compound 1 100 mg/kg PO, Day 1, 4-8 hr", "value": 84, "unit": "ng/mL"}]}
{"smiles": "CN1CCN(c2ccc3[nH]c(-c4c(N)c5c(F)cccc5[nH]c4=O)nc3c2)CC1", "note": "[Example 166]", "values": [{"measurement": "pEC50", "setting": "[5]", "value": "> 5.00"}]}
{"smiles": "C[N+]1([O-])CCN(c2ccc3nc(-c4c(N)c5c(F)cccc5[nH]c4=O)[nH]c3c2)CC1", "note": "[Compound 2, 4-Amino-5-fluoro-3-[5-(4-methyl-4-oxidopiperazin-1-yl)-1H-benzimidazol-2-yl]quinolin-2(1H)-one]", "values": [{"measurement": "presence of the N-oxide metabolite in monkey plasma", "setting": "[6]", "value": "not detected"}, {"measurement": "IC50", "setting": "c-Kit", "value": 0.0002, "unit": "µM"}]}
{"smiles": "CN1CCN(c2ccc3nc(-c4c(N)c5c(F)cccc5[nH]c4=O)[nH]c3c2)CC1", "values": [{"measurement": "pIC50", "setting": "CYP2C9", "value": "< 4.60"}, {"measurement": "pIC50", "setting": "CYP1A2", "value": "< 4.60"}, {"measurement": "pIC50", "setting": "CYP3A4", "value": "< 4.60"}, {"measurement": "pIC50", "setting": "CYP2C19", "value": "< 4.60"}, {"measurement": "tolerability", "setting": "[2]; mouse, in vivo", "value": "well tolerated"}, {"measurement": "pIC50", "setting": "CYP2D6", "value": "< 4.60"}]}
{"smiles": "CCN(CC)CCCCNc1ncc2cc(-c3cc(OC)cc(OC)c3)c(NC(=O)NC(C)(C)C)nc2n1", "note": "[PD173074]", "values": [{"measurement": "cytotoxic response / apoptosis in OPM2 cells", "setting": "OPM-2 cells", "value": "failed to induce apoptosis"}]}
